Assay: Antioxidant activity assessed as second order rate constant for galvinoxyl radical scavenging activity by UV-vis spectrophotometry
Assay type: functional

CC1(C)O[C@H]2Cc3c(O)cc(O)c([C@@H]4c5c(O)cc(O)cc5O[C@H](c5ccc(O)c(O)c5)[C@H]4O)c3O[C@@H]2c2cc(O)c(O)cc21
K: 1.89 ×10² /M/s

Oc1cc(O)c2c(c1)O[C@H](c1ccc(O)c(O)c1)[C@@H](O)[C@@H]2c1c(O)cc(O)c2c1O[C@H](c1ccc(O)c(O)c1)[C@@H](O)C2
K: 1 ×10² /M/s

Oc1cc(O)c2c(c1)O[C@H](c1ccc(O)c(O)c1)[C@@H](O)C2
K: 26 M⁻¹ s⁻¹

Reference: ChEMBL document CHEMBL3994620, “Synthesis and antioxidant activity of a procyanidin B3 analogue” (Bioorg Med Chem Lett, 2017)
